PMC12487869, “Toward Imaging of the GABA Transporter Type 1 In Vivo: Quantitative Evaluation of 4 Novel PET Radiotracers in Nonhuman Primates” (Journal of Nuclear Medicine, 2025)

Biological target: T1, GAT-1 (Macaca mulatta, UniProt H9ELS5)
T1 construct: from tissue; host or cells: brain of living rhesus monkeys (in vivo PET)
Assay: Guo plot comparing baseline VT of two radiotracers (relative affinity and BPND)
Type: in vivo, rhesus monkeys (Macaca mulatta)
Excerpt: Occupancy plots ([26]) were used to estimate tiagabine occupancy and the nondisplaceable volume of distribution (VND). This VND value was used to compute the nondisplaceable binding potential (BPND = VT/VND − 1). To compare the performance between 2 radiotracers, a Guo plot ([27]) was created, using baseline VT values, to assess the relative affinity and BPND values of each radiotracer.

T1 sequence (H9ELS5 1-599): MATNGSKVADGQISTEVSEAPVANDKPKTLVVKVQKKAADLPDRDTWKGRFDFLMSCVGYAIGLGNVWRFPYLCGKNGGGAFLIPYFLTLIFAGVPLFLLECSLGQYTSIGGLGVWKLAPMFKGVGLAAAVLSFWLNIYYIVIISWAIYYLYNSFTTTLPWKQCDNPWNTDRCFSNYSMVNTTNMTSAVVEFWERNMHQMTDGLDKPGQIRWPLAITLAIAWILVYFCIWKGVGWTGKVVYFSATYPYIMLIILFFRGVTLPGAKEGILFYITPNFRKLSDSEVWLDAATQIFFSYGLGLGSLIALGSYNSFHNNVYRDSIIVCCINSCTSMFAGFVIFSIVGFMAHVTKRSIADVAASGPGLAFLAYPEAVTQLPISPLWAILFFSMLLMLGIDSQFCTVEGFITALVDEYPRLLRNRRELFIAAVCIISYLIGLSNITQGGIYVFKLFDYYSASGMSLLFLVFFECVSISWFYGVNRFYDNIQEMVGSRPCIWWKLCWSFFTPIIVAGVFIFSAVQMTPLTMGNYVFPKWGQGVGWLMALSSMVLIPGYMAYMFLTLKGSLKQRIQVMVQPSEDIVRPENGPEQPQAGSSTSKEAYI

KD ratio (KD^GATT-31/KD^GATT-44) (Guo plot slope using measured fp values): 1.06 | BPND predicted higher than for ^18F-GATT-31 (Guo plot y-intercept, baseline VT): approximately 17%
SMILES: Cc1ccccc1C(=CCCN1CCCC(C(=O)O)C1)c1ccccc1[18F] (centres unmarked) [^18F-GATT-44]
